# Assay results reported in patent US12312333B2, “SK channel positive allosteric modulators” (Chapman University, priority 2021, dated 2025).
# Target: T1, rat KCa2.2a (UniProt P0DP23+P70604)
# T1 construct: expressed in transfected cells; host or cells: HEK293
# Assay: Inside-out patch-clamp potentiation of KCa2.2a channels expressed in HEK293 cells
# Format: cell-based
# Conditions: for EC50 / activity / potency on KCa2.2a channels: inside-out patch; for EC50: HEK293, 0.15 μM Ca2+, current at −90 mV, read-out: EC50 (mean ± SEM, μM) on potentiating KCa2.2a channels; for activity / potency on KCa2.2a channels: HEK293; for efficacy (Emax) on KCa2.2a channels: normalized to 10 μM Ca2+
# Protocol: The impact of adding one substituent group at C4 of the cyclohexane moiety of CyPPA with either electron donating (OH (2a), NH2 (2b), CH2OH (2c), and OCH3 (2d)) or electron-withdrawing groups (F (2e) and NO2 (2f)) was explored. The potency of the newly synthesized compounds compared to the template CyPPA was measured via inside-out patch clamp electrophysiology recordings with KCa2.2a channels heterologously expressed in HEK293 cells (FIG. 1A). […] The responses induced by 10 μM Ca^2+ are considered the maximal currents of the KCa2.2a channels. To evaluate the efficacy (Emax) of compounds on KCa2.2a channels, the current amplitudes at −90 mV in response to the maximal concentration of compounds were normalized to that obtained at 10 μM Ca^2+ (I/Imax (%), FIG. 1C).
# The effect of newly synthesized compounds on the KCa2.x/KCa3.1 channels was investigated as previously described (Nam, Y. W.; et al, Acta Physiol (Oxf) 2020, e13552; Nam, Y. W.; et al. Scientific reports 2018, 8 (1), 10749). Briefly, the rat KCa2.2a, human KCa2.1, human KCa2.3 or human KCa3.1 channels cDNA constructs were either generated in-house or through molecular cloning services (Genscript). The channel cDNAs, along with CaM and GFP, at a ratio of 7:4:2 (ORF ratios), were transfected into HEK293 cells by the calcium-phosphate method. KCa currents were recorded 1-2 days after transfection, with an Axon200B amplifier (Molecular Devices) at room temperature. The resistance of the patch electrodes ranged from 3-5 MΩ. The pipette solution contained (in mM): 140 KCl, 10 Hepes (pH 7.4), 1 MgSO4. The bath solution containing (in mM): 140 KCl, 10 Hepes (pH 7.2), 1 EGTA, 0.1 Dibromo-BAPTA, and 1 HEDTA was mixed with Ca^2+ to obtain the desired free Ca^2+ concentrations, calculated using the software by Chris Patton of Stanford University (https://somapp.ucdmc.ucdavis.edu/pharmacology/bers/maxchelator/webmaxc/webmaxcS.htm). The Ca^2+ concentrations were verified using a Ca^2+ calibration buffer kit (Thermo Fisher Scientific). Briefly, a standard curve was generated using the Ca^2+ buffers from the kit and a fluorescence Ca^2+ indicator. Then, the Ca^2+ concentrations of the bath solution were determined through interpolation on the standard curve.
# High resistance seals (>1 GΩ) were formed before inside-out patches were obtained. The seal resistance of inside-out patches was >1 GΩ, when the intracellular face was initially exposed to a zero-Ca^2+ bath solution. Currents were recorded by repetitive 1-s-voltage ramps from −100 mV to +100 mV from a holding potential of 0 mV. The currents were filtered at 2 kHz and digitized at a sampling frequency of 10 kHz. At the end of experiment, the integrity of the patch was examined by switching the bath solution back to the zero-Ca^2+ buffer. Data from patches, which maintained the seal resistance (>1 GΩ) after solution changes, were used for further analysis.
# To measure the effect of CyPPA (Alomone Labs) and newly synthesized compounds, the intracellular face was exposed to bath solutions with 0.15 μM Ca^2+. One minute after switching of bath solutions, ten sweeps with a 1-s interval were recorded at a series of concentrations of compound in the presence of 0.15 μM Ca^2+. The maximal KCa2.x/KCa3.1 current in response to 10 μM Ca^2+ was then recorded.
# Patch-clamp recordings were analyzed using Clampfit 10.5 (Molecular Devices LLC) and concentration-response curves were analyzed in GraphPad Prism 9.0.2 (GraphPad Software Inc.). To construct the concentration-dependent potentiation of channel activities by compound, the current amplitudes at −90 mV in response to various concentrations of the compound were normalized to that obtained at a maximal concentration of compound. The normalized currents were plotted as a function of the concentrations of the compound. EC50 values and Hill coefficients were determined by fitting the data points to a standard concentration-response curve (Y=100/(1+(X/EC50)^−Hill)). […]
EC50,activity / potency on KCa2.2a channels,efficacy (Emax) on KCa2.2a channels,Molecule
3.27 ± 0.3 µM,,,"Cc1cc(Nc2ccc(C(F)(F)F)c(Cl)c2)nc(-n2nc(C)cc2C)n1 [Compound 2t, N-(3-Chloro-4-(trifluoromethyl)phenyl)-2-(3,5-dimethyl-1H-pyrazol-1-yl)-6-methyl-pyrimidin-4-amine]"
> 100 µM,inactive,,"Cc1cc(Nc2ccc(S)cc2)nc(-n2nc(C)cc2C)n1 [Compound 2k, 4-((2-(3,5-Dimethyl-1H-pyrazol-1-yl)-6-methylpyrimidin-4-yl)amino)-benzenethiol]"
> 100 µM,,,"Cc1cc(N[C@@H](Cc2ccc(O)cc2)C(=O)O)nc(-n2nc(C)cc2C)n1 [Compound 2i, (2-(3,5-Dimethyl-1H-pyrazol-1-yl)-6-methylpyrimidin-4-yl)tyrosine]"
> 100 µM,,,"Cc1cc(Nc2cc(Cl)cc(C(F)(F)F)c2)nc(-n2nc(C)cc2C)n1 [Compound 2u, N-(3-Chloro-5-(trifluoromethyl)phenyl)-2-(3,5-dimethyl-1H-pyrazol-1-yl)-6-methylpyrimidin-4-amine]"
13.8 ± 1.68 µM,lower potency than 2q,retained their efficacy,"Cc1cc(Nc2cc(Cl)ccc2F)nc(-c2coc(C)n2)n1 [Compound 6a, N-(5-Chloro-2-fluorophenyl)-6-methyl-2-(2-methyloxazol-4-yl)pyrimidin-4-amine]"
2.97 ± 0.27 µM,,,"Cc1cc(Nc2cc(F)ccc2Cl)nc(-n2nc(C)cc2C)n1 [Compound 2r, N-(2-Chloro-5-fluorophenyl)-2-(3,5-dimethyl-1H-pyrazol-1-yl)-6-methylpyrimidin-4-amine]"
> 100 µM,,,"Cc1cc(NC2CCC(F)CC2)nc(-n2nc(C)cc2C)n1 (stereo not drawn) [Compound 2e, 2-(3,5-Dimethyl-1H-pyrazol-1-yl)-N-(4-fluorocyclohexyl)-6-methylpyrimidin-4-amine]"
> 100 µM,,,"COc1cc2nc(Nc3cc(C)nc(-n4nc(C)cc4C)n3)[nH]c2cc1OC [Compound 2w, N-(2-(3,5-Dimethyl-1H-pyrazol-1-yl)-6-methylpyrimidin-4-yl)-5,6-dimethoxy-1H-benzo[d]imidazol-2-amine]"
5.03 ± 0.59 µM,,,"Cc1cc(Nc2cccc(F)c2F)nc(-n2nc(C)cc2C)n1 [Compound 2m, N-(2,3-Difluorophenyl)-2-(3,5-dimethyl-1H-pyrazol-1-yl)-6-methyl-pyrimidin-4-amine]"
> 100 µM,,,"Cc1cc(NC2CCC(N)CC2)nc(-n2nc(C)cc2C)n1 (stereo not drawn) [Compound 2b, N^1-(2-(3,5-Dimethyl-1H-pyrazol-1-yl)-6-methylpyrimidin-4-yl)cyclohexane-1,4-diamine]"
> 100 µM,,,"Cc1cc(NC2CCC([N+](=O)[O-])CC2)nc(-n2nc(C)cc2C)n1 (stereo not drawn) [Compound 2f, 2-(3,5-Dimethyl-1H-pyrazol-1-yl)-6-methyl-N-(4-nitrocyclohexyl)pyrimidin-4-amine]"
1.89 ± 0.16 µM,,,"Cc1cc(Nc2cc(F)ccc2F)nc(-n2nc(C)cc2C)n1 [Compound 2n, N-(2,5-Difluorophenyl)-2-(3,5-dimethyl-1H-pyrazol-1-yl)-6-methylpyrimidin-4-amine]"
> 100 µM,,,"Cc1cc(NC(Cc2ccc(F)c(F)c2)C(=O)O)nc(-n2nc(C)cc2C)n1 (stereo not drawn) [Compound 2j, 3-(3,4-Difluorophenyl)-2-((2-(3,5-dimethyl-1H-pyrazol-1-yl)-6-methylpyrimidin-4-yl)amino)propanoic acid]"
1.99 ± 0.11 µM,,,"Cc1cc(Nc2ccc(Cl)cc2F)nc(-n2nc(C)cc2C)n1 [Compound 2p, N-(4-Chloro-2-fluorophenyl)-2-(3,5-dimethyl-1H-pyrazol-1-yl)-6-methyl-pyrimidin-4-amine]"
38.8 ± 4.02 µM,drastically reduced compared with 2o,decreased compared with 2o,"Cc1cn(-c2nc(C)cc(Nc3ccc(F)c(Cl)c3)n2)cn1 [Compound 5b, N-(3-Chloro-4-fluorophenyl)-6-methyl-2-(4-methyl-1H-imidazol-1-yl)pyrimidin-4-amine]"
> 100 µM,,,"Cc1cc(NC2CCC(O)CC2)nc(-n2nc(C)cc2C)n1 (stereo not drawn) [Compound 2a, 4-((2-(3,5-Dimethyl-1H-pyrazol-1-yl)-6-methylpyrimidin-4-yl)amino)cyclohexan-1-ol]"
> 100 µM,,,"Cc1cc(NC(Cc2ccc(C#N)cc2)C(=O)O)nc(-n2nc(C)cc2C)n1 (stereo not drawn) [Compound 2h, 3-(4-Cyanophenyl)-2-((2-(3,5-dimethyl-1H-pyrazol-1-yl)-6-methylpyrimidin-4-yl)amino)propanoic acid]"
> 100 µM,,,"Cc1cc(NC2CCC(CO)CC2)nc(-n2nc(C)cc2C)n1 (stereo not drawn) [Compound 2c, (4-((2-(3,5-Dimethyl-1H-pyrazol-1-yl)-6-methylpyrimidin-4-yl)amino)cyclohexyl) methanol]"
4.32 ± 0.32 µM,reduced potency,retaining their efficacy,"Cc1cc(C)n(-c2cc(C)c(Nc3ccc(F)c(Cl)c3)nn2)n1 [Compound 7, N-(3-Chloro-4-fluorophenyl)-6-(3,5-dimethyl-1H-pyrazol-1-yl)-4-methylpyridazin-3-amine]"
> 100 µM,inactive,,"Cc1cc(Nc2ccc([N+](=O)[O-])cc2)nc(-n2nc(C)cc2C)n1 [Compound 2l, 2-(3,5-Dimethyl-1H-pyrazol-1-yl)-6-methyl-N-(4-nitrophenyl)pyrimidin-4-amine]"
3.59 ± 0.33 µM,,retained their efficacy,"Cc1cc(Nc2ccc(F)c(Cl)c2)nc(-c2coc(C)n2)n1 [Compound 6b, N-(3-Chloro-4-fluorophenyl)-6-methyl-2-(2-methyloxazol-4-yl)pyrimidin-4-amine]"

Molecule,EC50,activity / potency on KCa2.2a channels,efficacy (Emax) on KCa2.2a channels
"Cc1cc(Nc2ccc(C(F)(F)F)cc2)nc(-n2nc(C)cc2C)n1 [Compound 2s, 2-(3,5-Dimethyl-1H-pyrazol-1-yl)-6-methyl-N-(4-(trifluoromethyl)-phenyl)pyrimidin-4-amine]",3.45 ± 0.42 µM,did not significantly change the potency compared with CyPPA,
"N^1-(2,5-Difluorophenyl)-6-(3,5-dimethyl-1H-pyrazol-1-yl)pyrimidine-2,4-diamine [Compound 3f]",> 100 µM,,
"N^1-(3-Chloro-4-(trifluoromethyl)phenyl)-6-(3,5-dimethyl-1H-pyrazol-1-yl)pyrimidine-2,4-diamine [Compound 3g]",> 100 µM,,
"N^1-(3-Chloro-4-fluorophenyl)-2-(3,5-dimethyl-1H-pyrazol-1-yl)pyrimidine-4,6-diamine [Compound 4]",6.59 ± 0.64 µM,reduced potency,retaining their efficacy
"N^1-(5-Chloro-2-fluorophenyl)-6-(3,5-dimethyl-1H-pyrazol-1-yl)pyrimidine-2,4-diamine [Compound 3c]",> 100 µM,,
"N^1-(2-Chloro-5-fluorophenyl)-6-(3,5-dimethyl-1H-pyrazol-1-yl)pyrimidine-2,4-diamine [Compound 3e]",> 100 µM,,
"N^1-(3-Chlorophenyl)-6-(3,5-dimethyl-1H-pyrazol-1-yl)pyrimidine-2,4-diamine [Compound 3a]",> 100 µM,,
"N^1-(4-Chloro-2-fluorophenyl)-6-(3,5-dimethyl-1H-pyrazol-1-yl)pyrimidine-2,4-diamine [Compound 3d]",> 100 µM,,
"N^1-(3-Chloro-4-fluorophenyl)-6-(3,5-dimethyl-1H-pyrazol-1-yl)pyrimidine-2,4-diamine [Compound 3b]",> 100 µM,,
